Read-outs that look alike come from different tables or passages of the source.
Assays:
L. major promastigote = experiment: Primary screening resazurin viability assay, L. major promastigotes; assay type: cell-based, Leishmania major; settings: for EC50: Leishmania major, promastigotes; for Active compound selection in the 4,000-compound library screen: cut-off 70% proliferation inhibition at the lowest compound concentration (0.2–0.02 µM), duplicate, data not shown
Protocol: (§1) L. major MHOM/IL/81/FRIEDLIN and L. donovani MHOM/ET/67/HU3 promastigotes were cultivated at 28°C in axenic M199 culture medium (Welgene, S. Korea) supplemented with 10% heat-inactivated fetal bovine serum (FBS) (Gibco, United States) and 1% streptomycin/penicillin (Gibco, United States).
(§2) After compound addition to the assay plate (Evotec™ 384-well microplate, Germany), 20,000 L. major promastigote parasites from an exponential phase culture (∼10^7 parasites/mL) were diluted in M199, seeded in 50 µL per well using FlexDrop™ and incubated at 28°C for 28 hours, followed by the addition of 5 mM resazurin sodium salt (Sigma R7017, United States) and further incubation for 20 hours at 28°C. After a 48-hour exposure to compounds, the reference drug (EtBr) or control (1% DMSO), the parasites were fixed with 2% paraformaldehyde (PFA) and plates were read in Victor3™ (Perkin Elmer) at 530 nm (excitation) and 590 nm (emission). This fixation step is not necessary for resazurin readout, but allows flexibility in the automation schedule and increases assay robustness by decreasing metabolic variability between populations across wells and plates.
The effect of compounds on Leishmania viability was assessed by fluorometric measurement of resazurin reduction. […] Reference compounds for antileishmanial activity (EtBr, amphotericin B, miltefosine and paromomycin) were tested (Fig. 1B) as a step of the validation process. […] Assay validation was performed on three separate days using 33 microplates (384 wells/plate) containing only controls. […] After assay validation, we screened a 4,000-compound library containing a number of compounds with known pharmacological properties. […] This assay was done in duplicate and results of each concentration assay are represented as individual graphs in Fig. 1D.

L. donovani promastigote = experiment: Resazurin viability assay, L. donovani promastigotes; assay type: cell-based; settings: Leishmania donovani
Protocol: as §1
as §2, with “plates. Z-factor, calculated as 1−(3×σp+3×σn)/(|μp−μn|), where μp, σp, μn and σn are the means (μ) and standard deviations (σ) of both the positive (p) and negative (n) controls, and other parameters, including DRC plates for verification of the reference drug EC50 (accepted if within the range of 3× higher or lower than a defined value from the literature), coefficient of variation not higher than 10% in the controls and edge effect evaluation, were used for screening validation and hits selection.” for “plates.”
Infection of human macrophage cells in vitro with Leishmania has been previously described as a suitable model for screening and was adopted for our purpose. The 124 active compounds selected from the secondary assay were tested in 10-point dose response with 2-fold serial dilutions starting from 20 µM against promastigotes and intracellular amastigotes of L. major and L. donovani infecting macrophages. The average Z-factor calculated per plate based on the reference drug (amphotericin B) and carrier (1% DMSO) was 0.62 for L. major infection and 0.59 for L. donovani infection, and minimum accepted Z-factor for the analysis was 0.5.

[1] = system: L. major intracellular amastigotes; experiment: Intracellular amastigotes assay, L. major infecting THP-1 macrophages (image-based infection ratio); assay type: cell-based; settings: Leishmania major, 96 h, intracellular amastigotes infecting THP-1 macrophages, 4 days incubation, read-out: L. major EC50 amastigote
Protocol: (§3) THP-1 cells were cultivated in suspension at a density of 10^5 to 10^6 cells/mL in RPMI (Gibco 1640, United States) medium supplemented with 10% heat-inactivated FBS and 1% streptomycin/penicillin at 37°C and 5% CO2. The differentiation of THP-1 into macrophages was induced by incubation of the cells for 48 hours with phorbol 12-myristate 13-acetate (PMA) at 50 ng/ml. For infection, late-stage L. major or L. donovani rich in metacyclic promastigotes was added to differentiated THP-1 cells (ratio of 50 parasites to 1 host cell) in Evotec™ 384-well microplates using a FlexDrop™ (Perkin Elmer) to dispense 50 µL/well. Compounds were added 24 hours after infection and microplates were incubated at 37°C and 5% CO2 for 4 days. Amphotericin B as the reference compound (positive control) at 10 µM as the EC100 and 1% DMSO (negative control) were used in all the plates for data normalization (see bellow). […] Microplates were read in an Opera confocal microscope (Perkin Elmer), enabling the determination of the infection ratio of the parasites by image analysis. […] The macrophage nuclei and internalized parasites were identified and counted if localized in the foreground previously selected (Figure S1). With this technique, extracellular parasites were not considered in the calculations, and the infection ratio was determined by the number of infected cells divided by the total number of cells after normalization based on the controls. The average infection ratios from the positive and negative controls were normalized to 0% and 100% infection, and the infection ratio read from each compound activity was proportionally distributed within this range. […]
(§4) Infection of human macrophage cells in vitro with Leishmania has been previously described as a suitable model for screening and was adopted for our purpose. […] The average Z-factor calculated per plate based on the reference drug (amphotericin B) and carrier (1% DMSO) was 0.62 for L. major infection and 0.59 for L. donovani infection, and minimum accepted Z-factor for the analysis was 0.5.

[2] = system: L. donovani intracellular amastigotes; experiment: Intracellular amastigotes assay, L. donovani infecting THP-1 macrophages (image-based infection ratio); assay type: cell-based; settings: Leishmania donovani, 96 h, intracellular amastigotes infecting THP-1 macrophages, 4 days incubation, read-out: L. donovani EC50 amastigote
Protocol: as §3, §4

[3] = Human cell toxicity test, resazurin viability; assay type: cell-based; settings: THP-1 cells (non-differentiated); THP-1 human cell line; read-out: Cytotoxicity CC50 THP-1
Protocol: To assess the cytotoxicity of compounds on THP-1, an acute monocytic leukemia-derived human cell line (ATCC TIB-202™), a viability assay also using resazurin reduction with minor modifications in concentration and incubation time was performed. Z-factor [15] and other parameters were used for secondary screening validation and hit exclusion.
To exclude potentially toxic compounds from the active list, we performed a secondary viability screening using the non-differentiated human macrophage cell line THP-1. Compounds that interfered with THP-1 viability at a concentration of 10 µM or lower were discarded.

[4] = Microsomal stability assay, human liver microsomes; assay type: in vitro ADME; settings: 2 µM compound, 0.5 mg/mL microsomes; for parent compound remaining after 30 minutes, human liver microsomes: NADPH
Protocol: (§5) Compounds at a concentration of 2 µM in 0.2% DMSO were incubated with 0.5 mg/mL rat (Sprague-Dawley Rat, BD Gentest) and human (human pool donors, BD Gentest) liver microsomes in potassium phosphate buffer in a reaction started by the addition of NADPH and stopped either immediately or at 5, 10, 30, 60 or 120 minutes for a precise estimate of microsomal stability. The corresponding loss of the parent compound was determined by a quadrupole liquid chromatography-mass spectrometry (LC-MS) with diode-array detection (Agilent 1200, Agilent Technology). The samples were passed through trapping cartridges (Security Guard Cartridge, Gemini C18, 4×2.0 mm, 3 µm, Phenomenex) followed by an analytical column (Gemini C18, 50×2.0 mm, 3 µm, Phenomenex). Positive electrospray ionization (ESI+) was employed for this analysis. The mobile phases A (water with 0.1% formic acid) and B (acetonitrile with 0.1% formic acid) were used at a flow rate of 0.3 mL/min. Gradient elution started with 95% mobile phase A and 5% mobile phase B. Elution was changed to a linear gradient until 50% A and B for 1 min. This condition was held for 0.5 min, then increased to 95% B over 0.5 min, and held for 1.5 min. Then, the elution gradient returned to 95% A and 5% B over 0.5 min, was held for the remaining 3.5 min. The percentage of the remaining compound was calculated by comparison with the initial quantity at 0 min. Half-life was calculated based on first-order reaction kinetics.

[5] = Microsomal stability assay, rat liver microsomes; assay type: in vitro ADME, Sprague-Dawley Rat; settings: 2 µM compound, 0.5 mg/mL microsomes; for half-life at 2 µM: Sprague-Dawley, rat, liver microsomes, first-order kinetics, read-out: theoretical half-life, rat liver microsomes
Protocol: as §5

CYP3A4 = CYP3A4 (Homo sapiens, UniProt P08684); experiment: CYP450 inhibition assay, fluorescent probe BFC; assay type: in vitro ADME; settings: for IC50: individual human P450s, eight-point curve
Protocol: (§6) Individual fluorescent probe substrates were used with individual rhCYP isozymes and fluorescence detection according to a previously published method. Probe substrates were 7-benzyloxy-4-(trifluoromethyl)-coumarin (BFC) for CYP3A4 and 3-[2-(N,N-diethyl-N-methylammonium)ethyl]-7-methoxy-4-methylcoumarin (AMMC) for CYP2D6 in 0.5% DMSO. IC50 was determined using an eight-point concentration curve with three-fold serial dilutions. Victor3™ (Perkin Elmer) was used for quantification in the fluorescent method (Perkin Elmer Life and Analytical Sciences).

CYP2D6 = CYP2D6 (Homo sapiens, UniProt P10635); experiment: CYP450 inhibition assay, fluorescent probe AMMC; assay type: in vitro ADME; settings: for IC50: individual human P450s, eight-point curve
Protocol: as §6

[6] = 10-point dose response, 2-fold dilutions from 20 µM, read-out: L. major EC50 promastigote
[7] = promastigotes, 10-point dose response, 2-fold dilutions from 20 µM, read-out: L. donovani EC50 promastigote
[8] = Fig. 1B, HTS format, read-out: EC50 of reference compound, L. major (black line)
[9] = Fig. 1B, HTS format, promastigotes, read-out: EC50 of reference compound, L. donovani (grey dashed line)

Chain of CYP3A4 (P08684 whole entry): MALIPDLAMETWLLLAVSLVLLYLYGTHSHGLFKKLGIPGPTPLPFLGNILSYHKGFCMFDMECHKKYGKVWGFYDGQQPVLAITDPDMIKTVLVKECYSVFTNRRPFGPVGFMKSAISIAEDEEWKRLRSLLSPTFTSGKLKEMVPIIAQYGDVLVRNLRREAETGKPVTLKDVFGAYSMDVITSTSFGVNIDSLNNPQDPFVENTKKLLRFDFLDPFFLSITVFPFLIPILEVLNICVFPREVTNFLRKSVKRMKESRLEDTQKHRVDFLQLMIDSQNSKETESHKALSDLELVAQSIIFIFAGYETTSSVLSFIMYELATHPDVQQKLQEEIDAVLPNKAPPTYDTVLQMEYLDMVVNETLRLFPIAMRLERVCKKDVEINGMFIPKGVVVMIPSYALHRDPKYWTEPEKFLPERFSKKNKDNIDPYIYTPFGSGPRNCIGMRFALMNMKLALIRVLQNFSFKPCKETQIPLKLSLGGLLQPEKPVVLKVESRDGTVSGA
Chain of CYP2D6 (P10635 whole entry): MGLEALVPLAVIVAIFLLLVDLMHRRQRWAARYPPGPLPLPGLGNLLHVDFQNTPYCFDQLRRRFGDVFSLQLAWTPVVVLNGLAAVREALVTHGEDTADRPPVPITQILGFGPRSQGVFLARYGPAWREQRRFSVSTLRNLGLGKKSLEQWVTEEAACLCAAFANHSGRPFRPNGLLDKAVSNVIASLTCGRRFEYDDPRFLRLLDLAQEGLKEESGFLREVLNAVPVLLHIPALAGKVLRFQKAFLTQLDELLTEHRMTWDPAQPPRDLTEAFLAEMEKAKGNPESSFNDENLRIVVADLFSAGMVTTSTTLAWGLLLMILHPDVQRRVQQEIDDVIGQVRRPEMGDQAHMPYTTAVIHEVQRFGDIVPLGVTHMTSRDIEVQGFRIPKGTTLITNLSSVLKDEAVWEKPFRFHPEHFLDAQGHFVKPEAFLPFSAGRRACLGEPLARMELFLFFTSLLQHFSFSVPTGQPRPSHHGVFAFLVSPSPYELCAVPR

SMILES: COc1cc(/C=N/NC(=O)c2cccc(C)c2O)ccc1OCc1ccccc1 [CA272]
- EC50 (L. major promastigote; [6]): 2.7 µM
- EC50 (L. donovani promastigote; [7]): 2.7 µM
- EC50 [1]: 0.8 µM
- EC50 [2]: 19 µM
- CC50 [3]: > 10 µM
- parent compound remaining after 30 minutes, human liver microsomes [4]: 77.8%
- half-life at 2 µM ([4]; human, liver microsomes, first-order kinetics, read-out: theoretical half-life, human liver microsomes): 79.4 min
- parent compound remaining, rat liver microsomes ([5]; NADPH, 30 minutes): 53.3%
- half-life at 2 µM [5]: 31.8 min
- EC50 (CYP3A4): 3.41 µM
- IC50 (CYP3A4): 3.41 µM
- EC50 (CYP2D6): > 10 µM
- IC50 (CYP2D6): > 10 µM

SMILES: Cc1nc2c(Cl)cccc2c(O)c1CN1CCCCC1C (stereo not shown) [CH872]
- EC50 (L. major promastigote; [6]): 0.1 µM
- EC50 (L. donovani promastigote; [7]): 0.05 µM
- EC50 [1]: 0.3 µM
- EC50 [2]: 0.06 µM
- CC50 [3]: > 10 µM
- parent compound remaining after 30 minutes, human liver microsomes [4]: 99.6%
- theoretical half-life, human liver microsomes ([4]; first-order kinetics): long
- time after which completely degraded, rat liver microsomes [5]: 25 min
- half-life at 2 µM [5]: 4.1 min
- EC50 (CYP3A4): > 10 µM
- IC50 (CYP3A4): > 10 µM
- EC50 (CYP2D6): > 10 µM
- IC50 (CYP2D6): > 10 µM

SMILES: CC[n+]1c(-c2ccccc2)c2cc(N)ccc2c2ccc(N)cc21 [EtBr, Ethidium bromide]
- EC50 (L. major promastigote; [8]): 0.014 µM
- EC50 (L. donovani promastigote; read-out: EC50 of reference compound, L. donovani (grey dashed line)): 0.005 µM

SMILES: C[C@@H]1[C@H](O)[C@@H](C)/C=C/C=C/C=C/C=C/C=C/C=C/C=C/[C@H](O[C@@H]2O[C@H](C)[C@@H](O)[C@H](N)[C@@H]2O)C[C@@H]2O[C@](O)(C[C@@H](O)C[C@@H](O)[C@H](O)CC[C@@H](O)C[C@@H](O)CC(=O)O[C@H]1C)C[C@H](O)[C@H]2C(=O)O [amphotericin B, reference compound]
- EC50 (L. major promastigote; [8]): 3.9 µM
- EC50 (L. donovani promastigote; [9]): 1.3 µM
- EC50 [1]: 1.06 µM
- EC50 [2]: 0.82 µM

SMILES: COc1ccc(C[C@H]2NC[C@H](O)[C@H]2OC(C)=O)cc1 [anisomycin]
- Active compound selection in the 4,000-compound library screen (L. major promastigote): active

SMILES: COc1ccc2cc3[n+](cc2c1OC)CCc1cc2c(cc1-3)OCO2 [berberine chloride]
- Active compound selection in the 4,000-compound library screen (L. major promastigote): active

SMILES: O=C1OCCN1/N=C/c1ccc([N+](=O)[O-])o1 [furazolidone]
- Active compound selection in the 4,000-compound library screen (L. major promastigote): active

SMILES: CCCCCCCCCCCCCCCCOP(=O)([O-])OCC[N+](C)(C)C [miltefosine]
- EC50 (L. major promastigote; [8]): 4.7 µM
- EC50 (L. donovani promastigote; [9]): 2.7 µM

SMILES: CC1CS(=O)(=O)CCN1/N=C/c1ccc([N+](=O)[O-])o1 (stereo not shown) [nifurtimox]
- Active compound selection in the 4,000-compound library screen (L. major promastigote): active

SMILES: NC(=O)N/N=C/c1ccc([N+](=O)[O-])o1 [nitrofural]
- Active compound selection in the 4,000-compound library screen (L. major promastigote): active

SMILES: NC[C@@H]1O[C@H](O[C@H]2[C@@H](O)[C@H](O[C@@H]3[C@@H](O)[C@H](N)C[C@H](N)[C@H]3O[C@H]3O[C@H](CO)[C@@H](O)[C@H](O)[C@H]3N)O[C@@H]2CO)[C@H](N)[C@@H](O)[C@@H]1O [paromomycin]
- EC50 (L. major promastigote; [8]): 62.5 µM
- EC50 (L. donovani promastigote; [9]): 13 µM

SMILES: C=C1C(=O)O[C@H]2[C@H]1CC/C(C)=C/CC[C@@]1(C)O[C@@H]21 [parthenolide]
- Active compound selection in the 4,000-compound library screen (L. major promastigote): active

SMILES: N=C(N)c1ccc(OCCCCCOc2ccc(C(=N)N)cc2)cc1 [pentamidine isethionate]
- Active compound selection in the 4,000-compound library screen (L. major promastigote): active

— PMC2864270 (PLoS Neglected Tropical Diseases, 2010)
